The values below come from patent US7547708B2, “N-sulfamoyl-N′-benzopyranpiperidine compounds and uses thereof” (Solvay Pharmaceuticals, Inc., priority 2005, dated 2009).

SMILES strings stand for the structures.

For series [1], the target named is T1, human carbonic anhydrase isoenzyme II (hCA II) (Homo sapiens, UniProt P00918).
T1 construct: human carbonic anhydrase isoenzyme II from erythrocytes (Sigma-Aldrich); purchased Sigma-Aldrich; host or cells: human erythrocytes (natural source)
Nature of the series: In vitro inhibition of human carbonic anhydrase isoenzyme II (dansylamide fluorescence). In kind it is binding. As to conditions: hCA II from erythrocytes 10^-7 M, dansylamide 2.25x10^-6, 60 min at 37° C., single measurements; read-out: hCA II inhibiting effect in vitro, IC50. The protocol:
1. In vitro Inhibition of Human Carbonic Anhydrase Isoenzyme II (hCA II)
The test compounds of general Formula I in 96 well microplates were diluted with aqua bidest by using an automatic pipettor (CyBiWell®). From the different dilution plates, aliquots of 20 μl were transferred to the 96 well black assay plates with a pipetting station (Tecan Genesis®). In a second step, 148 μl of potassium phosphate buffer (20 mM, pH 7.4) was added, and as a third step, 20 μl of enzyme solution (1 μM human carbonic anhydrase isoenzyme II from erythrocytes (Sigma-Aldrich), dissolved in potassium phosphate buffer) incubated for 60 min at room temperature and the fluorescence signal (Tecan Ultra® fluorescence reader; excitation wavelength: 280 nm; emission wavelength: 465 nm) read at the end of the preincubation period (FLU-1). After the preincubation time, 20 μl of aqueous dansylamide solution (1 mM dansylamide (Sigma-Aldrich), dissolved in hydrochloric acid) were added and the fluorescence signal read every 10 min for a period of 60 min at 37° C. For calculation, the fluorescence data of the time point 60 min (FLU-2) were used. The total volume of assay mixture amounted to 208 μl. The final concentration of carbonic anhydrase II was 10^−7 M/L, of dansylamide 2.25×10^−6 and of compounds from 10^−8 M/L up to 10^−5 M/L. Final concentration of DMSO as compound solvent was 0.1 mM. Each microplate also contained blanks without compound and enzyme, controls without compound and ethoxzolamide (final concentration 5×10^−8 M/L). All data reflect single measurements. Data were expressed as % inhibition after calculation by the formula: % inhibition=100((1−(FLU-2cpd−FLU-2blank−FLU-1cpd+FLU-1blank)/(FLU-2control−FLU-2blank−FLU-1control−FLU-1blank))
The % inhibition data for each compound and the respective final concentrations were used for IC50 calculations by using the Prism 4 software. Concentration action figures were calculated by applying the Prism algorithm for nonlinear regression (curve-fit): sigmoidal dose response with variable slope and the constraints: top: 100 and bottom 0.

In series [2] the test system is C57BI/6 mice. Nature of the series: Acute in vivo food intake test in mice. Particulars: 24 h food intake, C57BI/6 mice on high caloric diet, 100 mg/kg/day by oral gavage in two half doses. The protocol:
2. Acute in vivo Food Intake Test in Mice
The studies were carried out in male or female C57BI/6 mice (n=8-12 per group). The mice were kept on an inverted 12/12 h light/dark cycle (lights on 22:00). They were allowed food (high caloric diet) and water ad libitum. Food intake and water consumption was measured daily. The test compound of general Formula I was suspended in 1% methylcellulose in water and 2% (v/v) of Poloxamer 188 (Lutrol F68®) and administered by oral gavage at a dose of 100 mg/kg/day. One half of the dose was administered at 7.00-9.00 h; the remaining half of the dose was administered between 15.00-15.30 h.
In the test model described above, the test substances caused a decrease of the animals' 24 h food intake to the percentages of food intake when compared to control as given in the following Table 2.

Usually IC50 stands for the concentration needed to halve the response being measured. Usually melting point stands for the temperature, or range, at which the solid turns liquid. Turning to `NS(=O)(=O)N1CCC2(CC1)CC(=O)c1ccccc1O2` [Example 1], the melting point lay in the range of 172 to 174 °C. Also, the half-inhibitory concentration (IC50) in series [1] was determined as 6.6 µM. For the same compound, the “food intake [% of control]” value in series [2] is reported as 83 % of control.

Regarding `COc1ccc2c(c1)C(=O)CC1(CCN(S(N)(=O)=O)CC1)O2` [Example 3], the melting point lay in the range of 172 to 177 °C. The concentration for half-maximal inhibition (IC50) in series [1] came to 7.7 µM.

`NS(=O)(=O)N1CCC2(CC1)CC(=O)c1cc(Cl)ccc1O2` [Example 4]: the IC50 in series [1] came out at 6.4 µM.
